Experiments:
[1] = test system: fly heart; assay: Drug application to the fly heart, induction of arrhythmias; assay type: in vivo, Drosophila; conditions: HERG and KCNQ channels present in fly heart
Description: According to another embodiment of the invention, methods are provided for testing a compound for cardioactivity comprising: (a) providing a composition comprising an excised, denervated Drosophila heart that retains myogenic activity, and a physiologically acceptable hemolymph fluid in contact with said Drosophila heart; (b) contacting the composition with the compound; and (c) assessing the effect of the compound on the myogenic activity of the semi-intact Drosophila heart. In one such embodiment the method comprises assessing the effect of the compound on myogenic activity of the semi-intact Drosophila heart by producing images of the semi-intact Drosophila heart and analyzing the images. In another such embodiment, the method comprises determining a member of the group consisting of heart period, heart rate, diastolic interval, systolic interval, standard deviation of heart period, standard deviation of heart rate, standard deviation of diastolic interval, standard deviation of systolic interval, percent fractional shortening of heart contraction, arrhythmia index, velocity of heart muscle contraction, and directionality of heart muscle contraction.
These are thought to be due to drug effects on both HERG and KCNQ channels. […] Thus, this system can be used to screen for possible drug side effects.

[2] = test system: patients; conditions: some patients; thought to be due to effects on HERG and KCNQ channels; cited from earlier work

Compound: CCCCCCCN(CC)CCCC(O)c1ccc(NS(C)(=O)=O)cc1 (stereo not shown) [ibutilide]
- induction of arrhythmias in the fly [1]: induce arrhythmias in the fly
- induction of arrhythmias in patients [2]: induce arrhythmias in some patients

Compound: CCCCCCC[N+](CC)(CC)CCCCc1ccc(Cl)cc1 [clofilium]
- induction of arrhythmias in the fly [1]: induce arrhythmias in the fly
- induction of arrhythmias in patients [2]: induce arrhythmias in some patients
